{
  "source": "patent US12564595B2",
  "about": "“Prophylactic and therapeutic pharmaceutical agent for HIV infectious diseases characterized by comprising combination of integrase inhibitor and anti-HIV agent” (Shionogi & Co., Ltd., priority 2019, dated 2026)",
  "key": {"[1]": {"molecular_target": "T1, voltage-gated sodium channel (Nav 1.5 channel) (Homo sapiens, UniProt Q14524)", "T1 construct": "expressed in transfected cells; host or cells: HEK cells", "assay": "Test Example 14: Nav test (patch clamp, HEK cells)", "format": "cell-based", "settings": "HEK cells expressing Nav 1.5 channel, whole cell patch clamp", "protocol": "Using a fully automatic patch clamp system (QPatch: Sophion Bioscience A/S), by the whole cell patch clamp method, the cells were maintained at a membrane potential of −100 mV and the induced INa when a −10 mV depolarization stimulus was applied for 20 msec was recorded. […] From the INa obtained, using analysis software (QPatch: Sophion Bioscience A/S), the absolute value of the maximum peak current was measured, with reference to the current value at the maintained membrane potential."}, "[2]": {"system": "HIV mutant strain 2 (E92Q/E138T/G140S/Q148H)", "assay": "Test Example 2: resistance evaluation test (HeLa-CD4 reporter), mutant strain 2", "format": "cell-based", "settings": "FC=EC50 of mutant strain/EC50 of wild strain; HeLa-CD4 cells", "method_in_brief": "(§1)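 HeLa-CD4 reporter cells were infected with wild-type or mutant HIV in the presence of serially diluted compound and cultured 3 days. Cell lysates were read by chemiluminescent reporter assay after about 1 h at room temperature. Fold change was calculated as mutant EC50 divided by wild-type EC50.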"}, "[3]": {"assay": "Test Example 8: metabolic stability test", "format": "in vitro ADME, human", "settings": "pooled human liver microsomes, 30 min at 37° C., NADPH, compound concentration 0.5 μmol/L", "method_in_brief": "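Pooled human liver microsomes (0.5 mg protein/mL, Tris-HCl pH 7.4) incubated with compound and 1 mmol/L NADPH for 0 or 30 min at 37° C. After methanol/acetonitrile quench, remaining parent was quantified by LC/MS/MS or SPE/MS and expressed as % of the 0 min amount.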"}, "[4]": {"system": "HIV mutant strain 1 (E138K/G140S/Q148H/N155H)", "assay": "Test Example 2: resistance evaluation test (HeLa-CD4 reporter), mutant strain 1", "format": "cell-based", "settings": "FC=EC50 of mutant strain/EC50 of wild strain; HeLa-CD4 cells", "method_in_brief": "as §1"}, "[5]": {"system": "HIV mutant strain 4 (T97A/E138T/G140S/Q148H)", "assay": "Test Example 2: resistance evaluation test (HeLa-CD4 reporter), mutant strain 4", "format": "cell-based", "settings": "FC=EC50 of mutant strain/EC50 of wild strain; HeLa-CD4 cells", "protocol": "(§2) A serial dilution series of test samples in 96-well microplates was prepared (50 […]).\n(§3) 2.5×10^4/mL of HeLa-CD4 cell suspension was dispensed into each of the microplates containing test sample, in the amount of 100 μL/well, and HIV virus liquid (wild strain and mutant strain) was then dispensed in an amount of 50 μL/well. Mixing was performed using a plate mixer and culturing was performed for three days in a CO2 incubator. After removing the cultured supernatant of each well by suction, 100 μL of the cell solution buffer in the reporter measurement kit was dispensed thereto, and freezing was conducted in a refrigerator (−80° C.). The plates frozen in the refrigerator were defrosted at room temperature, then mixed using a plate mixer and centrifuged for 5 min at 1,200 rpm. The supernatant of each well was divided to 96-well microplates (BLACK) in the amount of 20 μL in each case. The chemiluminescence reagent in the reporter assay kit was dispensed in the amount of 100 μL in each case, and, after reacting for about 1 h at room temperature, the amount of luminescence was measured using a MicroBeta TRILUX.\n(§4) The degree of resistance (fold change (FC)) of each mutant strain was also calculated using the following formula. FC=EC50 of mutant strain/EC50 of wild strain (Results)"}, "[6]": {"system": "HIV mutant strain 3 (E92Q/E138K/G140S/Q148H)", "assay": "Test Example 2: resistance evaluation test (HeLa-CD4 reporter), mutant strain 3", "format": "cell-based", "settings": "FC=EC50 of mutant strain/EC50 of wild strain; HeLa-CD4 cells", "protocol": "as §2, §3, §4"}, "HIV [7]": {"system": "HIV", "assay": "microbe, parasite or virus in culture", "format": "cell-based", "settings": "Human immunodeficiency virus 1, MT4, 96 h, read-out: EC50 (50% HIV inhibition concentration), MT-4 cells, HIV, cultured four days, MTT; compounds of formula (I) of (A)", "method_in_brief": "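MT-4 cells infected with HIV in the presence of serially diluted test samples and cultured four days at CO2 incubator conditions. Cell viability measured by MTT reduction (1 h), solubilised formazan read at 560/690 nm.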"}, "HIV [8]": {"system": "HIV", "assay": "Test Example 3: test for confirmation of combined use effect", "format": "cell-based", "set-up": "key to D value (dosewise additivity value): <-0.1 synergy, -0.1 to 0.1 additive, >0.1 antagonism"}, "HIV [9]": {"system": "HIV", "assay": "Test Example 16: anti-HIV activity in the presence of human serum protein (MT-4 cells)", "format": "cell-based", "settings": "100% extrapolation value, PS=4×(EC50 with 25% human serum protein/EC50 with no human serum protein)", "protocol": "A stage dilution series of the test samples was created on a 96-well microplate (50 μL/well).\nAliquots of human serum protein solution (human serum protein concentration 50%) were dispensed in the amount of 100 μL/well to a 96-well microplate containing the test sample. This was then left to stand for 1 h at room temperature. Culture medium in the amount of 100 μL/well in each case was dispensed to a serum-free plate for control purposes. Aliquots of MT-4 cells in the amount of 3.0×10^5/well and HIV virus liquid in the amount of 3 μL/well were mixed for the necessary number of wells and reacted for 1 h at 37° C. After the reaction, the cell suspension was centrifuged and the supernatant discarded; aliquots of infected cells were distributed to culture medium in the amount of 50 μL/well and were dispensed in the amount of 50 μL/well in each case into the wells of a 96-well microplate containing test samples and human serum protein (human serum protein concentration: 25%). Mixing was performed using a plate mixer and culturing was performed for four days with a CO2 incubator. […] MTT(3-(4, 5-dimethylthiazol-2-yl)-2, 5-diphenyltetrazolium bromide) liquid in the amount of 30 μL was dispensed to each of the wells. The reaction was performed for 1 h in a CO2 incubator. 150 μL supernatant was removed to avoid aspirating cells from the wells. 150 μL of cell solution was added and thorough mixing was performed, using a plate mixer, until all the cells were dissolved. The optical absorbance on the mixed plate was measured at two wavelengths, namely, 560 nm/690 nm, using a microplate reader.\nNext, the potency shift (PS) was calculated, using the following formula. The PS is the value of the human serum protein concentration, extrapolated to 100%."}, "[10]": {"settings": "combination with compound (B) Compound C (CAI)"}, "[11]": {"settings": "combination with compound (B) GS-6207 (CAI)"}, "[12]": {"settings": "combination with compound (B) GSK2838232 (maturation inhibitor)"}, "[13]": {"settings": "combination with compound (B) I′-189 (INLAI)"}, "[14]": {"settings": "combination with compound (B) Ramipzin (3TC) (polymerase inhibitor)"}, "[15]": {"settings": "combination with compound (B) VM-1500 (polymerase inhibitor)"}},
  "data": [
    {"smiles": "CN1C(=O)c2c(O)c(=O)c(C(=O)NCc3ccc(F)cc3F)cn2N2CCCC[C@@H]12", "note": "[Compound I-032]", "values": [
      {"measurement": "ratio of maximum peak current (INa) on application of compound to that on application of medium", "setting": "[1]", "result": 92.1, "unit": "%"},
      {"measurement": "FC in respect of mutant strain 2 (E92Q/E138T/G140S/Q148H)", "setting": "[2]", "result": 18},
      {"measurement": "Remaining percentage", "setting": "[3]", "result": 103, "unit": "%"},
      {"measurement": "FC in respect of mutant strain 1 (E138K/G140S/Q148H/N155H)", "setting": "[4]", "result": 51},
      {"measurement": "FC in respect of mutant strain 4 (T97A/E138T/G140S/Q148H)", "setting": "[5]", "result": "compound I-032: 10"},
      {"measurement": "FC in respect of mutant strain 3 (E92Q/E138K/G140S/Q148H)", "setting": "[6]", "result": "Compound I-032: 7.7"}
    ]},
    {"smiles": "CCN1C(=O)c2c(O)c(=O)c(-c3nnc(Cc4ccc(F)cc4F)s3)cn2N2C[C@@H](C)C[C@@H]12", "note": "[II-109]", "values": [
      {"measurement": "ratio of maximum peak current (INa) on application of compound to that on application of medium", "setting": "[1]", "result": 93.3, "unit": "%"},
      {"measurement": "FC in respect of mutant strain 2 (E92Q/E138T/G140S/Q148H)", "setting": "[2]", "result": 2.5},
      {"measurement": "Remaining percentage", "setting": "[3]", "result": 98.3, "unit": "%"},
      {"measurement": "EC50", "setting": "HIV [7]", "result": 1.2, "unit": "nM"},
      {"measurement": "FC in respect of mutant strain 1 (E138K/G140S/Q148H/N155H)", "setting": "[4]", "result": 4.1},
      {"measurement": "D value (dosewise additivity value)", "setting": "HIV [8]; [10]", "result": 0.071},
      {"measurement": "effect of combined use", "setting": "HIV [8]; [10]", "result": "Additive (−0.1 to −0.1: additive synergetic effect)"},
      {"measurement": "D value (dosewise additivity value)", "setting": "HIV [8]; combination with compound (B) Darunavin (PI)", "result": "−0.143"},
      {"measurement": "effect of combined use", "setting": "HIV [8]; combination with compound (B) Darunavir (PI)", "result": "Weak synergy (−0.2 to −0.1: weak synergetic effect)"},
      {"measurement": "D value (dosewise additivity value)", "setting": "HIV [8]; [11]", "result": "−0.059"},
      {"measurement": "effect of combined use", "setting": "HIV [8]; [11]", "result": "Additive (−0.1 to −0.1: additive synergetic effect)"},
      {"measurement": "D value (dosewise additivity value)", "setting": "HIV [8]; [12]", "result": "−0.054"},
      {"measurement": "effect of combined use", "setting": "HIV [8]; [12]", "result": "Additive (−0.1 to −0.1: additive synergetic effect)"},
      {"measurement": "D value (dosewise additivity value)", "setting": "HIV [8]; [13]", "result": 0.056},
      {"measurement": "effect of combined use", "setting": "HIV [8]; [13]", "result": "Additive (−0.1 to −0.1: additive synergetic effect)"},
      {"measurement": "effect of combined use", "setting": "HIV [8]; combination with compound (B) Lilpiperine (polymerase inhibitor)", "result": "Additive (−0.1 to −0.1: additive synergetic effect)"},
      {"measurement": "D value (dosewise additivity value)", "setting": "HIV [8]; [14]", "result": "−0.145"},
      {"measurement": "effect of combined use", "setting": "HIV [8]; [14]", "result": "Weak synergy (−0.2 to −0.1: weak synergetic effect)"},
      {"measurement": "D value (dosewise additivity value)", "setting": "HIV [8]; combination with compound (B) Rilpivirine (polymerase inhibitor)", "result": "−0.096"},
      {"measurement": "D value (dosewise additivity value)", "setting": "HIV [8]; [15]", "result": "−0.094"},
      {"measurement": "effect of combined use", "setting": "HIV [8]; [15]", "result": "Additive (−0.1 to −0.1: additive synergetic effect)"},
      {"measurement": "potency shift (PS) in the presence of human serum protein", "setting": "HIV [9]", "result": 56}
    ]}
  ]
}
